Laboratory results: patent US20100298141A1, “SUBSTITUTED PYRIDINE N-OXIDE HERBICIDES” (E. I. DU PONT DE NEMOURS AND COMPANY, priority 2007, published 2010)

What was measured:
[1] = test system: crabgrass; test: Test A pre-/postemergence greenhouse test; assay type: in vivo, Digitaria sanguinalis; conditions: for Plant response rating, Crabgrass, Large: 0 to 100 scale where 0 is no effect and 100 is complete control; for Crabgrass, Large plant response rating: 0 to 100 scale
Procedure, shortened: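 Each test compound, dissolved in a non-phytotoxic solvent mixture with surfactant, was sprayed directly onto seeded soil (loam/sand blend) and, at the same moment, onto seedlings carrying one to two leaves. Around ten greenhouse days later, plants were rated visually for injury relative to untreated controls.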

[2] = test system: downy brome; test: Test C pre-/postemergence test; assay type: in vivo, Bromus tectorum
Procedure, shortened: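 Compounds in a non-phytotoxic solvent with surfactant applied preemergence to seeded pots and, at the same time, postemergence to plants 2–18 cm tall (1- to 4-leaf stage). Paddy tests: pots flooded to 3 cm, compound applied into the water, depth held throughout.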

[3] = test system: Surinam grass; test: Test F preemergence test; assay type: in vivo, Brachiaria decumbens; conditions: scale 0 to 100; for Plant response rating, Surinam Grass: Preemergence
Text: (§1) Seeds of plant species selected from bermudagrass (Cynodon dactylon), Surinam grass (Brachiaria decumbens), large crabgrass (Digitaria sanguinalis), green foxtail (Setaria viridis), goosegrass (Eleusine indica), johnsongrass (Sorghum halepense), kochia (Kochia scoparia), pitted morningglory (Ipomoea lacunosa), purple nutsedge (Cyperus rotundus), common ragweed (Ambrosia elation), mustard (Brassica nigra), guineagrass (Panicum maximum), […] (Paspalum dilatatum), barnyardgrass (Echinochloa crus-galli), southern sandbur (Cenchrus echinatus), common sowthistle (Sonchus oleraceous), prickly […] spinosa), Italian ryegrass (Lolium multiflorum), common purslane (Portulaca oleracea), broadleaf signalgrass (Brachiaria platyphylla), common groundsel (Senecio vulgaris), common chickweed (Stellaria media), Virginia dayflower (Commelina virginica), annual bluegrass (Poa annua), naked crabgrass (Digitaria nuda), […] cochinchinensis), quackgrass (Elytrigia repens), Canada horseweed (Conyza canadensis), field bindweed (Convolvulus arvensis), […] (Bidens bipinnata), common mallow (Malva sylvestris), Russian thistle (Salsola kali), and sugarcane (Saccharum officinarum) were planted and treated preemergence with test chemicals formulated in a non-phytotoxic solvent mixture which included a surfactant. At a different time, sugarcane was treated with postemergence applications of some of the test chemicals formulated in the same manner. Plants were approximately 3- to 4-leaf stage for the postemergence treatments. Treated plants and controls were maintained in a greenhouse for 14 to 21 days, after which time all species were compared to controls and visually evaluated. […] A dash (-) response means no test result.

[4] = test system: large crabgrass; test: Test F preemergence test; assay type: in vivo, Digitaria sanguinalis; conditions: scale 0 to 100
Text: as §1

[5] = test system: green foxtail; test: Test F preemergence test; assay type: in vivo, Setaria viridis; conditions: scale 0 to 100
Text: as §1

[6] = test system: goosegrass; test: Test F preemergence test; assay type: in vivo, Eleusine indica; conditions: scale 0 to 100
Text: as §1

[7] = test system: johnsongrass; test: Test F preemergence test; assay type: in vivo, Sorghum halepense; conditions: scale 0 to 100
Text: as §1

[8] = test system: common ragweed; test: Test F preemergence test; assay type: in vivo, Ambrosia elation; conditions: scale 0 to 100
Text: as §1

[9] = test system: southern sandbur; test: Test F preemergence test; assay type: in vivo, Cenchrus echinatus; conditions: scale 0 to 100; for Plant response rating, Sandbur: Preemergence
Text: as §1

[10] = test system: Italian ryegrass; test: Test F preemergence test; assay type: in vivo, Lolium multiflorum; conditions: scale 0 to 100
Text: as §1

[11] = test system: itchgrass; test: Test F preemergence test; assay type: in vivo, Rottboellia cochinchinensis; conditions: scale 0 to 100
Text: as §1

[12] = test system: field bindweed; test: Test F preemergence test; assay type: in vivo, Convolvulus arvensis; conditions: scale 0 to 100
Text: as §1

## Cn1nc(C(F)(F)C(F)(F)F)c(C[S+]([O-])c2cccc[n+]2[O-])c1OCC(F)(F)F (centres unmarked) [Compound 79]
[1]; Postemergence, 125 g ai/ha
  Plant response rating, Crabgrass, Large: 70
[1]; Postemergence, 500 g ai/ha, 0 is no effect, 100 is complete control
  Crabgrass, Large plant response rating: 90
[1]; Preemergence, 125 g ai/ha, 0 no effect, 100 complete control
  Crabgrass, Large plant response rating: 70
[1]; Preemergence, 500 g ai/ha
  Plant response rating, Crabgrass, Large: 100
[2]; 62 g ai/ha, Preemergence, scale 0 to 100
  Bromegrass, Downy plant response rating: 50
[2]; 125 g ai/ha, preemergence, scale 0 (no effect) to 100 (complete control)
  Bromegrass, Downy plant response rating: 100
[2]; Postemergence, 31 g ai/ha
  Plant response rating (0 to 100), Bromegrass, Downy: 0
[2]; Postemergence, 62 g ai/ha
  Plant response rating (0 to 100), Bromegrass, Downy: 0
[2]; Postemergence, 125 g ai/ha, scale 0 to 100, 0 no effect, 100 complete control
  Plant response rating, Bromegrass, Downy: 20
[2]; Postemergence, 250 g ai/ha, scale 0 to 100, 0 no effect, 100 complete control
  Plant response rating, Bromegrass, Downy: 60
[2]; Preemergence, 31 g ai/ha, scale 0 to 100 (0 no effect, 100 complete control)
  Plant response rating, Bromegrass, Downy: 50
[2]; preemergence, 250 g ai/ha, scale 0 (no effect) to 100 (complete control)
  Bromegrass, Downy plant response rating: 100
[3]; 125 g ai/ha, preemergence
  Surinam Grass plant response rating: 100
[3]; 62 g ai/ha
  Plant response rating, Surinam Grass: 100
[3]; 31 g ai/ha
  Plant response rating, Surinam Grass: 30
[4]; 16 g ai/ha, preemergence
  Plant response rating, Crabgrass, Large: 0
[4]; 62 g ai/ha, Preemergence
  Crabgrass, Large plant response rating: 80
[4]; 125 g ai/ha, preemergence
  Crabgrass, Large plant response rating: 100
[4]; Preemergence, 31 g ai/ha
  Plant response rating, Crabgrass, Large: 20
[5]; 16 g ai/ha, preemergence
  Plant response rating, Foxtail, Green: 20
[5]; 62 g ai/ha, Preemergence
  Foxtail, Green plant response rating: 90
[5]; 125 g ai/ha, preemergence
  Foxtail, Green plant response rating: 100
[5]; Preemergence, 31 g ai/ha
  Plant response rating, Foxtail, Green: 60
[6]; 16 g ai/ha, preemergence
  Plant response rating, Goosegrass: 20
[6]; 62 g ai/ha, Preemergence
  Goosegrass plant response rating: 98
[6]; 125 g ai/ha, preemergence
  Goosegrass plant response rating: 100
[6]; Preemergence, 31 g ai/ha
  Plant response rating, Goosegrass: 75
[7]; 16 g ai/ha, preemergence
  Plant response rating, Johnsongrass: 0
[7]; 62 g ai/ha, Preemergence
  Johnsongrass plant response rating: 90
[7]; 125 g ai/ha, preemergence
  Johnsongrass plant response rating: 100
[7]; Preemergence, 31 g ai/ha
  Plant response rating, Johnsongrass: 50
[8]; 16 g ai/ha, preemergence
  Plant response rating, Ragweed: 95
[8]; 125 g ai/ha, preemergence
  Ragweed plant response rating: 100
[8]; Preemergence, 62 g ai/ha
  Plant response rating, Ragweed: 100
[8]; Preemergence, 31 g ai/ha
  Plant response rating, Ragweed: 100
[9]; 125 g ai/ha, preemergence
  Sandbur plant response rating: 95
[9]; 62 g ai/ha
  Plant response rating, Sandbur: 95
[9]; 31 g ai/ha
  Plant response rating, Sandbur: 35
[10]; 16 g ai/ha, preemergence
  Plant response rating, Ryegrass, Italian: 0
[10]; 125 g ai/ha, preemergence
  Ryegrass, Italian plant response rating: 100
[10]; Preemergence, 62 g ai/ha
  Plant response rating, Ryegrass, Italian: 100
[10]; Preemergence, 31 g ai/ha
  Plant response rating, Ryegrass, Italian: 65
[11]; 16 g ai/ha, preemergence
  Plant response rating, Itchgrass: 0
[11]; 62 g ai/ha, Preemergence
  Itchgrass plant response rating: 75
[11]; 125 g ai/ha, preemergence
  Itchgrass plant response rating: 95
[11]; Preemergence, 31 g ai/ha
  Plant response rating, Itchgrass: 75
[12]; 16 g ai/ha, preemergence
  Plant response rating, Field Bindweed: 60
[12]; 62 g ai/ha, Preemergence
  Field Bindweed plant response rating: 80
[12]; 125 g ai/ha, preemergence
  Field Bindweed plant response rating: 95
[12]; Preemergence, 31 g ai/ha
  Plant response rating, Field Bindweed: 70
